From article PMC10541198, “Specific quinone reductase 2 inhibitors reduce metabolic burden and reverse Alzheimer’s disease phenotype in mice” (The Journal of Clinical Investigation, 2023)
Several values for one entry are separate records, joined by “and”; a condition that tells them apart may be missing. Identical values can stand only once.

Key:
4-HNE = assay: Immunoblot of 4-HNE 3 hours after CA1 microinjection; assay type: in vivo, mouse
Experimental: In order to evaluate the efficacy of some of the leading QR2is in vivo, we carried out double-blind experiments using 2 different modalities (Supplemental Methods), measuring memory that is dependent on different brain areas. First, cortical memory was tested using incidental novel taste learning (see Methods), in which an unfamiliar, but palatable and safe, taste is given for the first time, and the memory for this newly learned taste is then assessed 2 days later. This is done by measuring the volume of the taste consumed upon subsequent exposure to it ([32]) (Figure 4A). […] Next, hippocampal-dependent learning was evaluated using delay fear conditioning (DFC; see Methods) ([33]). Mice were cannulated to the CA1 region of the hippocampus and were microinjected with YB-537 (1 μL of 5 μM, Figure 4, D and H) or vehicle. […] In order to evaluate any possible effect of acute QR2i microinjection on metabolic stress in the mouse brain, ISR activation was measured by quantifying total and phosphorylated eukaryotic initiation factor 2 α (eIF2α) levels (Supplemental Figure 3A) and lipid peroxidation product, 4-hydroxynonenal (4-HNE; Supplemental Figure 3B), by immunoblot 3 hours after the injection. […]

5xFAD mice = assay: General wellbeing / adverse effects during 1 month ingestion; assay type: in vivo, mouse; conditions: 8-to-9-month-old 5xFAD, both sexes, 50 mg/kg in drinking water, month-long
Experimental: We next aimed to test the effect of QR2 inhibition in AD model mice using YB-537, taking advantage of its extremely high specificity, solubility, and lack of toxicity. First, we determined YB-537 pharmacokinetics (PK) and oral bioavailability and assessed any acute observable toxicity in mice. […] We therefore opted to chronically deliver YB-537 to AD-model mice via their drinking water, so they may freely ingest the inhibitor at 50 mg/kg, with minimal intervention or trauma, for 1 month. We chose 9-month-old 5xFAD ([27]) male and female mice in double-blind experiments, so that well-progressed symptoms and pathologies would be present, to mimic clinically relevant cases in human patients ([35]), as has been previously described in this mouse model. Other than an improvement in nest quality ([36]) over time seen in animals receiving YB-537 (starting at age 8 months and ending at age 9 months), no changes to general physical parameters or wellbeing were observed over the 1 month of YB-537 ingestion (Supplemental Figure 6, A–J). […] Since learning in this paradigm was slow, and performance was poor even following 6 days of training (using 4 learning trials a day), a test day was not carried out and instead only the learning rate was measured. […]

SMILES: Cc1ccc(-c2cn3cccc(C)c3n2)cc1S(=O)(=O)N1CCNCC1 [YB-537]
- 4-HNE levels (4-HNE; 3 hours after microinjection in the mouse hippocampus): insignificant reduction
- Sup. Fig. 3B, immunoblot signal (4-HNE; individual animals): 1.944 and 1.965 and 2.545 and 1.185 and 0.887 and 2.092 and 2.161
- adverse effects of chronic ingestion (5xFAD mice): no adverse effects were seen
